This is an account of results in patent publication US20240091169A1, “POL[…] FOR TREATING INFLAMMATORY DISEASES” (UNIVERSITY OF SOUTH CAROLINA, priority 2022, published 2024).

In experiment [1] the test system is bone marrow derived macrophages (BMDMs). In words: CCK-8 cell viability of BMDMs. The experiment is classed as cell-based, C57BL/6 mice. As to conditions: Mus musculus, BMDM, 24 hr, read-out: IC50, cell survival of BMDMs. As for the experimental part:
(§1) Bone marrow-derived macrophages (BMDMs) were isolated from healthy 10-14-week-old C57BL/6 male mice. Briefly, mice were euthanized by isoflurane overdose. Femurs were cleared of muscle and debris. The epiphyses of the femurs were cut and placed knee-down and spun down in a 1.5 mL tube. Bone marrow was collected and resuspended in complete DMEM (cDMEM; 10% FBS, 1% penicillin/streptomycin) and passed through two 100 μm strainers. Cells were plated on an untreated 10 cm dish in cDMEM and allowed to incubate at 37° C. for 4 hr. Adherent/mature monocytes and dendritic cells were discarded, while floating/immature monocytes were collected. Cells were subjected to RBC lysis and resuspended in bone marrow maintenance media (BMMM; 20% L929-conditioned media in cDMEM). Cells were then plated on surface-treated 6-well plates at a 250 k cells/well seeding density. On day 3, fresh BMMM was added. On day 5, media was aspirated and fresh BMMM was added. […] Cells were stained and analyzed for macrophages via flow cytometry as described above with the addition of analyzing macrophage phenotypes. From the CD11b^+CD68^+ macrophage population, macrophage phenotypes were determined based on CD206 and CD11c expression. […] All cells were measured using a FACS Aria II (BD) and analyzed using FlowJo (BD Biosciences). […]

Experiment [2] relates to BMDMs treated with C26 CM. In words: Survival of BMDMs cultured with C26 tumor conditioned media. Conditions: 48 hr. Format: cell-based, C57BL/6 mice. As for the experimental part: as §1

With `C=CC(O)C#CC#CC/C=C\CCCCCCC` (stereo in doubt) [PA, 3(R)-(9Z)-heptadeca-1,9-dien-4,6-diyn-3-ol], the IC50 (as a rule, the midpoint of a concentration-inhibition curve) in experiment [1] was roughly 7 µM. Moreover, the “reduction of macrophage survival” value in experiment [2] (1 μM PA) is reported as 31.5%; in experiment [2] (5 μM PA) it was 45.3%.
